Measured values published in patent US20260258402A1, “DEVICE FOR DETERMINING MOLECULAR INTERACTIONS” (Depixus SAS, priority 2023, published 2026).

What was measured:
[1] = target: E3 ligase CEREBLON (in complex with its binding partner DDB1), the neo-target GSPT1 (Homo sapiens, UniProt P15170+Q96SW2); assay: Tertiary complex formation between CRBN/DDB1 and GSPT1 with a molecular glue, on the nucleic acid scaffold (force cycles); conditions: for formation / stabilization of the tertiary complex CEREBLON-DDB1 / GSPT1 in the presence of the molecular glue: FIG. 27 and 28, force reduced to 0.01 pN to allow interaction
Method: (§2) Briefly, a reference elongation length of a nucleic acid scaffold present in a flow cell was determined at a constant force. Next, a single stranded polynucleotide containing the complementary sequence of the first molecule binding sequence as well as an amine group at the 5′ end (SEQ ID NO: 23) was coupled to candidate protein (CRBN and its binding partner DDB1 that form the E3 ligase complex) by a covalent conjugation (esterification via EDC). In parallel, a second single stranded polynucleotide containing the complementary sequence of the second molecule binding sequence as well as an amine group at the 3′ end (SEQ ID NO: 34) was coupled to candidate protein (GSTP1 neo-substrat of CRBN) by a covalent conjugation (esterification via EDC). A first candidate molecule conjugated to a first polynucleotide and a second candidate molecule covalently conjugated to a second polynucleotide are sequentially injected into the flow cell to anchor them on to the nucleic acid scaffold and form a screening nucleic acid scaffold (FIGS. 27 and 28). Then, a force of 2 pN was applied to determine the maximal elongation length. The force was then reduced to 0.01 pN to allow the two proteins to interact. If the two candidate molecules have binding interaction between them, upon increasing the force back to 2 pN, the elongation observed would be less than the full extension of the screening nucleic acid scaffold. If the two candidate molecules have no binding interaction between them or weaker binding interaction between them than the applied force, the nucleic acid scaffold would fully stretch. The two proteins are not believed to have a native interaction. […] Various concentration of compound can be performed to measure the Kon and Koff of interaction in presence of the compound.

[2] = target: E3 ligase CEREBLON (in complex with its binding partner DDB1), the neo-substrate IKAROS1 (Homo sapiens, UniProt Q13422+Q96SW2)
Method: as §2

[3] = system: double stranded blunt end substrates; assay: NHEJ complex formation on two double stranded blunt end substrates on the scaffold (force cycles); format: binding; conditions: for role in the complex formed on the blunt end adapters: FIG. 25B, Ku70/80 and APFL injected together, 2 pN
Method: The system described in Example 1 and Example 2 was used for determining binding kinetics between two substrates and proteins that form a Non-Homologous End Joining (NHEJ) complex. The NHEJ complex recognizes double stranded blunt ends and repair these lesions in the cell. Accordingly, two substrates, each comprising a single stranded carrier polynucleotide and a candidate molecule comprising a double stranded blunt end were prepared, wherein the single stranded carrier polynucleotide was complementary to a molecule binding sequence of a nucleic acid scaffold. The double stranded blunt end was prepared by annealing twice two oligos together (SEQ ID NOS: 14 and 15, as well as SEQ ID NOS: 17 and 18 at 10 μM each in PBS).
Because each of the proposed sequences contained the glue sequence for first and second molecule binding sequence respectively, the substrates could be directed to a specific location on the nucleic acid scaffold. Accordingly, the two substrates for the NHEJ complex were anchored to two molecule binding sequences of the nucleic acid scaffold to form a screening nucleic acid scaffold. The excess substrates were washed away. A reference elongation length of a screening nucleic acid scaffold was determined by applying 2 pN force in the absence of the substrates.
(§1) Next, two candidate proteins, KU70/80 complex as well as the APFL protein together into PBS 1X, were injected within the flow cell. The flow was stop and force cycles experiments were initiated. Blockage traces were recorded at 0.1 pN and 2 pN. At 0.1 pN force, the screening nucleic acid scaffold was unstructured, which allowed the two blunt ends to be brought in close proximity. […] Because the method was a non-destructive process, the force cycles were repeated multiple times to further probe the interaction.
The system described in Example 1 and Example 2 was used for determining binding kinetics between two substrates and proteins that form a Non-Homologous End Joining (NHEJ) complex. The NHEJ complex recognizes double stranded blunt ends and repairs these lesions in the cell. Accordingly, two substrates, each comprising a single stranded carrier polynucleotide and a candidate molecule comprising a double stranded blunt end were prepared, wherein the single stranded carrier polynucleotide was complementary to a molecule binding sequence of a nucleic acid scaffold. The two double stranded blunt end adapters were prepared by annealing in two separate tubes two oligos together (SEQ ID NOS: 14 and 15, as well as SEQ ID NOS: 17 and 18 at 10 μM each in a buffer containing: 50 mM NaCl, 10 mM Tris-HCl, 10 mM MgCl2, 1 mM DTT at pH 7.9 @ 25° C.).
Because the proposed system was based on the protein complex recognizing blunt ends DNA, the substrates could be directed to a specific location on the nucleic acid scaffold. Accordingly, the two substrates for the NHEJ complex were anchored to two molecule binding sequences of the nucleic acid scaffold to form a screening nucleic acid scaffold. The excess substrates were washed away. A reference elongation length of a screening nucleic acid scaffold was determined by applying force cycles at three step forces: 0.01, 2 and 20 pN force in the absence of the substrates.
as §1, with “a buffer containing: 20 mM Hepes-KOH PH7.8, 100 mM KCL, 5 mM MgCl2, 1 mM DTT, 0.5 mg/mL BSA, and they” for “PBS 1X,”, “Force cycles” for “Blockage traces”, “were the force varies between three plateau: 0.01 pN, 2” for “at 0.1”, “20 pN (FIG. 25A).” for “2 pN.”, “0.01” for “0.1”

[4] = Example 3, both proteins injected together in PBS 1X, force cycles 0.1 pN and 2 pN
[5] = Example 12, both proteins injected together, force cycles 0.01, 2 and 20 pN

E3 ligase CEREBLON (in complex with its binding partner DDB1), the neo-target GSPT1, sequence (Q96SW2 whole entry): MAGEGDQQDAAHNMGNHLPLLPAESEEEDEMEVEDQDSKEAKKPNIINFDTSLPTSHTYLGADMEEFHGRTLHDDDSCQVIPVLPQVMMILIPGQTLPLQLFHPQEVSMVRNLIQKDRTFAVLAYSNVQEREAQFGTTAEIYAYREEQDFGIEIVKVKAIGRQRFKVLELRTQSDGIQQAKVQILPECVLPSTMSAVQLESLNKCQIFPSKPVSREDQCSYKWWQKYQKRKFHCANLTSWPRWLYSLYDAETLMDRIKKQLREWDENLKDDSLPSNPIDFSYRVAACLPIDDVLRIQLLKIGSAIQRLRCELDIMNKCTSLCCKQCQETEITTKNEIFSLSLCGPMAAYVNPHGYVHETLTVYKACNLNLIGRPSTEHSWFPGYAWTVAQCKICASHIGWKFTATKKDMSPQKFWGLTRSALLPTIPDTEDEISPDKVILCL
E3 ligase CEREBLON (in complex with its binding partner DDB1), the neo-target GSPT1, sequence (Q16531 whole entry partner): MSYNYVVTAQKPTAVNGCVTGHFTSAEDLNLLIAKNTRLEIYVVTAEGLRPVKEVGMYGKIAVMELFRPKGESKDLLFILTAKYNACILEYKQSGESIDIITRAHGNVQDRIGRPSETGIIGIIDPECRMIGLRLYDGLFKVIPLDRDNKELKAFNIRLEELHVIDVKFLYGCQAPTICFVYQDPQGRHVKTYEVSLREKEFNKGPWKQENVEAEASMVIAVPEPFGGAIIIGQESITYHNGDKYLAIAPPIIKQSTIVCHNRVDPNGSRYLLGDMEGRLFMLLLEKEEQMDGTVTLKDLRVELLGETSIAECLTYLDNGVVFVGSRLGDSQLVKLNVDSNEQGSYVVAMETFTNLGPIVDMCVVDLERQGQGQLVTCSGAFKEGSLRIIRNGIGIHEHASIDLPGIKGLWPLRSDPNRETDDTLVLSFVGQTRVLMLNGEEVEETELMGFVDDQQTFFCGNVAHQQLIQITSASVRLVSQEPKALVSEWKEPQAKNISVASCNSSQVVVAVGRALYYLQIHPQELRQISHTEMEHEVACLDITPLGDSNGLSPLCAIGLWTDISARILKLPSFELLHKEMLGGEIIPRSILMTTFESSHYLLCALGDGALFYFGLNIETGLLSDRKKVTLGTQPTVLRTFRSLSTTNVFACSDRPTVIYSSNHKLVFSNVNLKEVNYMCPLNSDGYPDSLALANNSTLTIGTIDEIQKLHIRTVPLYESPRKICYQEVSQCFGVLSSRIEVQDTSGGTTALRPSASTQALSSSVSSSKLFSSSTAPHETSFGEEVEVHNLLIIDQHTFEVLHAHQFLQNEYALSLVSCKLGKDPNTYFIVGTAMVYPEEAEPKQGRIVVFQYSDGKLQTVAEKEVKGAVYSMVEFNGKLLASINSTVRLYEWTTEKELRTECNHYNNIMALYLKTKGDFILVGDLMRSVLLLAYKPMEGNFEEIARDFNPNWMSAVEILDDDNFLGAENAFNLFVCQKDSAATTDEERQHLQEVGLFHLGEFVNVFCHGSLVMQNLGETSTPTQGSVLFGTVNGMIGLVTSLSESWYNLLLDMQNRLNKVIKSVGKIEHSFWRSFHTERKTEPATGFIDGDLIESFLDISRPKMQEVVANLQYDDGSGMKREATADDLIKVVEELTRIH
E3 ligase CEREBLON (in complex with its binding partner DDB1), the neo-target GSPT1, sequence (P15170 whole entry): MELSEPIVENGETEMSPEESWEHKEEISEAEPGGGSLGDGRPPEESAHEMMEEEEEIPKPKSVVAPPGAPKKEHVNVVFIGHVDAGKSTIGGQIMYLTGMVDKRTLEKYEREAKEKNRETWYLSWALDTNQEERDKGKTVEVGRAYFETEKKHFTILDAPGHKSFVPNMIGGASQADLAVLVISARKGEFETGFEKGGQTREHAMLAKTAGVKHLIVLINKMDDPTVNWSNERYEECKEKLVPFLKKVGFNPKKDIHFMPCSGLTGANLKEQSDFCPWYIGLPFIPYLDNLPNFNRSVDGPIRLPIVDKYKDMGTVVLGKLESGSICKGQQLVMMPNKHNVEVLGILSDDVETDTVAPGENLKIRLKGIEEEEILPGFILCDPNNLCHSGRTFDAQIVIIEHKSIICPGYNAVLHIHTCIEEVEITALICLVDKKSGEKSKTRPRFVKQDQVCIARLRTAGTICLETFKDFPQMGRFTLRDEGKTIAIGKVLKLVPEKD
E3 ligase CEREBLON (in complex with its binding partner DDB1), the neo-substrate IKAROS1, sequence (Q13422 whole entry): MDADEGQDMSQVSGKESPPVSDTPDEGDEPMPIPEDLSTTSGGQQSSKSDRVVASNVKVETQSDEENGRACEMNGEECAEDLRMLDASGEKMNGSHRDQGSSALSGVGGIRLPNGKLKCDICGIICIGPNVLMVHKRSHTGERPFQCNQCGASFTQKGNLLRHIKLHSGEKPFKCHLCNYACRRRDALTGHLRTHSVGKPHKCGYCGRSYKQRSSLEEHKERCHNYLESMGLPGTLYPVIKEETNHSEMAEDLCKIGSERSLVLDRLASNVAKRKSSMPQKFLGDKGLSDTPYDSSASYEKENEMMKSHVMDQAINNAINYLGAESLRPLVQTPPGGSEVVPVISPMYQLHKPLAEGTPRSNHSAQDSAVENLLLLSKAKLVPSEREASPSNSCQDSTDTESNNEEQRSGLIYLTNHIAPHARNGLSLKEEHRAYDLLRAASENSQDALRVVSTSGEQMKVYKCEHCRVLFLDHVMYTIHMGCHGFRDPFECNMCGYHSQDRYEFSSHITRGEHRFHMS
E3 ligase CEREBLON (in complex with its binding partner DDB1), the neo-substrate IKAROS1, sequence (Q16531 whole entry, further chain): as the sequence (Q16531 whole entry partner) above
E3 ligase CEREBLON (in complex with its binding partner DDB1), the neo-substrate IKAROS1, sequence (Q96SW2 whole entry): as the sequence (Q96SW2 whole entry) above

Row | Molecule | formation / stabilization of the tertiary complex CEREBLON-DDB1 / GSPT1 in the presence of the molecular glue [1] | blockage of scaffold stretching (complex on the two blunt end substrates) [3, 4] | blockage of scaffold stretching (complex on the two blunt end substrates) [3, 5] | role in the complex formed on the blunt end adapters [3] | also measured
1 | Cc1ccc(NC(=O)NCc2ccc3c(c2)CN(C2CCC(=O)NC2=O)C3=O)cc1Cl (centres unmarked) [CC885] | greatly stabilizes the complex | – | – | – | force needed to break the tertiary complex ([1]; FIG. 27, CEREBLON-DDB1 / GSPT1): 20 pN; time to reform the complex when the force is reduced to 0.01 pN ([1]; FIG. 27, after breaking at 20 pN): few second
2 | Nc1cccc2c1C(=O)N(C1CCC(=O)NC1=O)C2=O (centres unmarked) [pomalidomide] | – | – | – | – | force the tertiary complex can sustain ([2]; FIG. 29): up to 2 pN; formation of the tertiary complex CEREBLON-DDB1 / IKAROS1 upon addition of the molecular glue ([2]; FIG. 29): strong tertiary complex is formed; interaction between CRBN E3 ligase and IKZF1 in presence of the compound ([2]; compound at 1 nM): the interaction was observed
3 | O=C1CCC(N2C(=O)c3ccccc3C2=O)C(=O)N1 (centres unmarked) [thalidomide] | possible to observe formation of the tertiary complex | – | – | – | strength of the tertiary complex interaction (in words) ([1]; FIG. 28, compared with CC885): the interaction is weaker and can be broken even at low force
4 | KU70/80: KU70/80 complex, which binds at the double stranded breaks (NHEJ) | – | one or more transient blockages were observed | one or more transient blockages were observed | form at the blunt end of both adapters | –
5 | APFL: APFL protein that bridges Ku70/80 complexes in the NHEJ complex (protein, UniProt Q8IW19 1-511, looked up) Aprataxin and PNK-like factor: MSGGFELQPRDGGPRVALAPGETVIGRGPLLGITDKRVSRRHAILEVAGGQLRIKPIHTNPCFYQSSEKSQLLPLKPNLWCYLNPGDSFSLLVDKYIFRILSIPSEVEMQCTLRNSQVLDEDNILNETPKSPVINLPHETTGASQLEGSTEIAKTQMTPTNSVSFLGENRDCNKQQPILAERKRILPTWMLAEHLSDQNLSVPAISGGNVIQGSGKEEICKDKSQLNTTQQGRRQLISSGSSENTSAEQDTGEECKNTDQEESTISSKEMPQSFSAITLSNTEMNNIKTNAQRNKLPIEELGKVSKHKIATKRTPHKEDEAMSCSENCSSAQGDSLQDESQGSHSESSSNPSNPETLHAKATDSVLQGSEGNKVKRTSCMYGANCYRKNPVHFQHFSHPGDSDYGGVQIVGQDETDDRPECPYGPSCYRKNPQHKIEYRHNTLPVRNVLDEDNDNVGQPNEYDLNDSFLDDEEEDYEPTDEDSDWEPGKEDEEKEDVEELLKEAKRFMKRK | – | one or more transient blockages were observed | one or more transient blockages were observed | bridges these complexes | –
